Experimental data: US11365220B2, “Methods of making anti-GP41 antibody-specific capture agents” (California Institute of Technology, priority 2013, dated 2022)

Test system: 4B3
Details: stored under N2 at 25° C., 37° C., or 57° C. for 58 days; 10 nM 4B3 spiked in 1% v/v human serum
Experimental: Small amounts of (iii) were stored under N2 at 25° C., 37° C., or 57° C. for 58 days. […] The remaining samples were lyophilized and used in a single point sandwich ELISA. Streptavidin-coated 96-well plates were saturated with the samples of (iii) recovered from the storage experiments using 1 μM solutions in TBS. The plates were blocked with 5% w/v dry milk in TBS, then incubated with either 1% v/v human serum or 10 nM 4B3 spiked in 1% v/v human serum in 0.5% w/v dry milk in TBS at room temperature for 1 hr. Bound antibody was probed with HPR-conjugated mouse monoclonal antibody to human IgG Fc diluted 1:15,000 in 0.5% w/v dry milk in TBS. The colorimetric assay was developed with TMB substrate, then quenched with 1 M H2SO4 and read at 450 nm.

Biotin-PEG5-IWCGSGKLICTTA-Pra-(TZ-Az4-eihny-CONH2)-ICTTA-CONH2 [(iii)]
ELISA performance after storage: no detectable loss of performance
